Measured values reported in patent US11492341B2, “ACLY inhibitors and uses thereof” (Nimbus Artemis, Inc., priority 2018, dated 2022).

Target: ACL (Homo sapiens (Human), UniProt P53396)
Assay: ADP-Glo Assay
Type: biochemical
Conditions: 3 nM ACL, 15 μM ATP, 3 μM CoA, 300 μM Citrate
Method: Example 28. ADP-Glo Assay
Compounds of the present invention were evaluated in an ADP-GLO assay as follows: a) Dilute cpd 1:3 in succession in DMSO by hand for each cpds for 12 pts b) Add 0.1 μL diluted cpd solution to assay plate, each dose with 2 replicates c) Centrifuge 1000 RPM for 1 min d) Add 5 μL ACL working solution to 384-well assay plate, centrifuge 1000 RPM for 1 min e) Incubate at 25° C. for 15 min f) Add 5 μL substrate working solution to initiate reaction g) Final ACL reaction concentrations: 3 nM ACL, 15 μM ATP, 3 μM CoA, 300 μM Citrate, 0.01% Brij35, 4 mM DTT, 1% DMSO; h) Reference final conc: 30 uM starting Conc, 3× dilution, 11+0 points. Test cpd conc: 30/100 uM starting Conc, 3× dilution, 11+0 points. i) Incubate at 25° C. for 60 min j) Add 10 μL ADP Glo reagent, centrifuge 1000 RPM for 1 min k) Incubate at 25° C. for 40 min l) Add 20 μL kinase detection reagent, centrifuge 1000 RPM for 1 min m) Incubate at 25° C. for 40 min n) Read on Envision for US LUM as RLU

Chain of ACL (P53396 whole entry, species assumed): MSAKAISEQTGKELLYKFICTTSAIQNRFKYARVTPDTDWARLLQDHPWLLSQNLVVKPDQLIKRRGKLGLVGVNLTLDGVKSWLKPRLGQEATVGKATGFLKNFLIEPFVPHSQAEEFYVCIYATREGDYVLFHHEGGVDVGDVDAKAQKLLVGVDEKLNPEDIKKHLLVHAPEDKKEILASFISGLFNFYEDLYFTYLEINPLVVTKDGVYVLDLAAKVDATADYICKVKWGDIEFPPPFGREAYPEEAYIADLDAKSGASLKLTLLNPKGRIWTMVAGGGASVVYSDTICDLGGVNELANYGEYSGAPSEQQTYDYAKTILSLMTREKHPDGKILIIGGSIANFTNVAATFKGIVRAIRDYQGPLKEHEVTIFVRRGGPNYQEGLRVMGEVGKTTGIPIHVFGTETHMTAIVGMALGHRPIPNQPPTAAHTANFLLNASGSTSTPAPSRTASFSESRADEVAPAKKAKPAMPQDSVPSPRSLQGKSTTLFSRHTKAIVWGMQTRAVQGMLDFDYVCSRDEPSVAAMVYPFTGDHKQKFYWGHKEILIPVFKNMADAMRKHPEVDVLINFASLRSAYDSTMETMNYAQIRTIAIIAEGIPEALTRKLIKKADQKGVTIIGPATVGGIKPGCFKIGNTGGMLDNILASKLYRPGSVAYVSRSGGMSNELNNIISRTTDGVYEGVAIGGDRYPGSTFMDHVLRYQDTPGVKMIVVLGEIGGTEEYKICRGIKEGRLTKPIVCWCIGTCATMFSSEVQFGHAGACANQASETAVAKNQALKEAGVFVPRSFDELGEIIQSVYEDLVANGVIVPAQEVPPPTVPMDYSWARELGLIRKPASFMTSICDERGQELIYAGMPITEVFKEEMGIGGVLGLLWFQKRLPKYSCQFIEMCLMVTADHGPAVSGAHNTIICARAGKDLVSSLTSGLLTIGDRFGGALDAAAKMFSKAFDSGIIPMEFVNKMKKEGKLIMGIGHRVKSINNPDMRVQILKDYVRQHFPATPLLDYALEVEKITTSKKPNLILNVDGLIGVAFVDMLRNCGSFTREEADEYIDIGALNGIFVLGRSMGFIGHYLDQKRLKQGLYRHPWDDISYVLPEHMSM

Compound | IC50 [µM]
N#Cc1cc(Cl)c(O)c(S(=O)(=O)n2c(-c3ccccc3)cc3cc(Cl)ccc32)c1 [I-78] | 0.5 to 20
O=S(=O)(c1cc(F)cc(F)c1O)n1c(-c2cnc(O)nc2)cc2cc(Cl)ccc21 [I-140] | 0.5 to 20
O=S(=O)(c1cc(F)cc(F)c1O)n1c(-c2cccc[n+]2[O-])cc2cc(Cl)ccc21 [I-126] | ≥ 20
Cc1ncncc1-c1cc2cc(Cl)ccc2n1S(=O)(=O)c1cc(F)cc(F)c1O [I-102] | 0.5 to 20
O=S(=O)(c1cncc(O)c1)n1c(-c2ccccc2)cc2cc(Cl)ccc21 [I-119] | ≥ 20
NC(=O)c1ccc2c(c1)cc(-c1ccccc1)n2S(=O)(=O)c1cc(Cl)cc(Cl)c1O [I-57] | 0.5 to 20
Cc1cc2cc(Cl)c(C(=O)O)cc2n1S(=O)(=O)c1cc(Br)cc(Cl)c1O [I-160] | 0.5 to 20
Cc1cncc(-c2cc3cc(Cl)ccc3n2S(=O)(=O)c2cc(F)cc(F)c2O)n1 [I-101] | 0.5 to 20
N#Cc1ccc2c(c1)cc(-c1cncnc1)n2S(=O)(=O)c1cc(F)cc(F)c1O [I-97] | 0.5 to 20
Cc1cc2cc(Cl)ccc2n1S(=O)(=O)c1cc(-c2ccccc2)cc(Cl)c1O [I-142] | 0.5 to 20
O=S(=O)(c1ccccc1O)n1c(-c2ccccc2)cc2cc(Cl)ccc21 [I-106, 2-((5-chloro-2-phenyl-1H-indol-1-yl)sulfonyl)phenol] | ≥ 20
O=S(=O)(c1cc(Br)cc(Cl)c1O)n1c(C2CC2)cc2cc(Cl)ccc21 [I-41] | 0.5 to 20
COc1ccc(N2CCN(S(=O)(=O)c3cc(Cl)cc(Cl)c3O)CC2)cc1 [I-16] | 0.5 to 20
O=C(c1cn(S(=O)(=O)c2cc(Br)cc(Cl)c2O)c2ccc(Cl)cc12)N1CCC1 [I-163] | 0.5 to 20
O=C(O)c1cccc(-c2cc3cc(Cl)ccc3n2S(=O)(=O)c2cc(Br)cc(Cl)c2O)c1 [I-44] | < 0.5
N#Cc1ccc2c(c1)cc(-c1cnc[nH]1)n2S(=O)(=O)c1cc(F)cc(F)c1O [I-83] | 0.5 to 20
O=S(=O)(c1cc(F)cc(F)c1O)n1c(-c2cncs2)cc2cc(F)ccc21 [I-86] | 0.5 to 20
O=C(O)Cc1cc2cc(Cl)ccc2n1S(=O)(=O)c1cc(Cl)cc(Cl)c1O [I-88] | 0.5 to 20
CN(C)C(=O)c1ccc2c(c1)cc(-c1ccccc1)n2S(=O)(=O)c1cc(Br)cc(Cl)c1O [I-56] | 0.5 to 20
O=S(=O)(c1cc(Cl)cc(Cl)c1O)N1CCC(Oc2ccccc2)CC1 [I-10] | 0.5 to 20
O=S(=O)(c1cc(F)cc(F)c1O)n1c(-c2cncnc2)cc2cc(Cl)ccc21 [I-90] | 0.5 to 20
O=C(O)c1cc(Cl)c(O)c(S(=O)(=O)n2c(-c3ccccc3)cc3cc(Cl)ccc32)c1 [I-73] | 0.5 to 20
C[C@@H]1CN(S(=O)(=O)c2cc(Cl)cc(Cl)c2O)C[C@H](C)O1 [I-14] | 0.5 to 20
CN(C)C(=O)c1ccccc1-c1cc2cc(Cl)ccc2n1S(=O)(=O)c1cc(Br)cc(Cl)c1O [I-38] | 0.5 to 20
O=C(O)c1ccccc1-c1cc2cc(Cl)ccc2n1S(=O)(=O)c1cc(Br)cc(Cl)c1O [I-27, 2-(1-((5-bromo-3-chloro-2-hydroxyphenyl)sulfonyl)-5-chloro-1H-indol-2-yl)benzoic acid] | 0.5 to 20
CC(C)(O)c1cc2cc(Cl)ccc2n1S(=O)(=O)c1cc(Br)cc(Cl)c1O [I-39] | 0.5 to 20
O=S(=O)(c1cc(Cl)cc(Cl)c1O)N1CCOC(COc2ccccc2)C1 (stereo not shown) [I-8] | 0.5 to 20
O=S(=O)(c1cc(F)cc(F)c1O)n1c(-c2cnccn2)cc2cc(Cl)ccc21 [I-105] | 0.5 to 20

Results, then the molecule that gave them:

IC50 [µM] | Compound
0.5 to 20 | Cc1cn(S(=O)(=O)c2cc(Br)cc(Cl)c2O)c2ccc(Cl)cc12 [I-147]
0.5 to 20 | Cc1cnc(-c2cc3cc(Cl)ccc3n2S(=O)(=O)c2cc(F)cc(F)c2O)cn1 [I-127]
0.5 to 20 | COC(=O)c1ccc2cc(-c3ccccc3)n(S(=O)(=O)c3cc(Br)cc(Cl)c3O)c2c1 [I-70]
0.5 to 20 | N#Cc1ccc2c(c1)cc(-c1cc3ccccc3s1)n2S(=O)(=O)c1cc(Br)cc(Cl)c1O [I-161]
0.5 to 20 | O=S(=O)(c1cc(Cl)cc(Cl)c1O)N1Cc2cnn(-c3ccccc3)c2C1 [I-7]
0.5 to 20 | O=S(=O)(c1cc(Br)cc(Cl)c1O)n1c(-c2cc3ccccc3s2)cc2cc(Cl)ccc21 [I-144]
0.5 to 20 | COC(=O)c1cc2c(cc1Cl)cc(C)n2S(=O)(=O)c1cc(Br)cc(Cl)c1O [I-148]
0.5 to 20 | O=S(=O)(c1cc(Cl)cc(Cl)c1O)N1CC(O)(c2ccc(Cl)cc2)C1 [I-9]
0.5 to 20 | N#Cc1ccc2c(c1)cc(-c1cccc(F)c1)n2S(=O)(=O)c1cc(F)cc(F)c1O [I-75]
0.5 to 20 | O=S(=O)(c1cccc(Cl)c1O)n1c(-c2ccccc2)cc2cc(Cl)ccc21 [I-63]
0.5 to 20 | O=C(O)c1ccc2cc(-c3ccccc3)n(S(=O)(=O)c3cc(Br)cc(Cl)c3O)c2c1 [I-67]
0.5 to 20 | O=S(=O)(c1cc(Cl)cc(Cl)c1O)N1CC2(CCOCC2)c2ccccc21 [I-6]
0.5 to 20 | O=S(=O)(c1cc(Br)cc(Cl)c1O)n1c(-c2ccccc2)cc2ccccc21 [I-23, 4-bromo-2-chloro-6-((2-phenyl-1H-indol-1-yl)sulfonyl)phenol]
0.5 to 20 | O=S(=O)(c1cc(F)cc(F)c1O)n1c(-c2ccc(OC(F)(F)F)cc2)cc2cc(Cl)ccc21 [I-51]
0.5 to 20 | CN(C)C(=O)c1ccc2cc(-c3ccccc3)n(S(=O)(=O)c3cc(Br)cc(Cl)c3O)c2c1 [I-80]
< 0.5 | O=S(=O)(c1cc(Br)cc(Cl)c1O)n1c(-c2cccnc2)cc2cc(Cl)ccc21 [I-34]
0.5 to 20 | O=C(O)c1cc(C(=O)O)c(O)c(S(=O)(=O)n2c(-c3ccccc3)cc3cc(Cl)ccc32)c1 [I-121]
0.5 to 20 | O=S(=O)(c1cc(F)cc(F)c1O)n1c(-c2ccccn2)cc2cc(Cl)ccc21 [I-95]
0.5 to 20 | COc1ccc2c(c1)CCN2S(=O)(=O)c1cc(Cl)cc(Cl)c1O [I-17]
0.5 to 20 | O=S(=O)(c1cc(Br)cc(Cl)c1O)n1ccc2ccc(-c3ccccc3)cc21 [I-4, 4-bromo-2-chloro-6-((6-phenyl-1H-indol-1-yl)sulfonyl)phenol]
0.5 to 20 | O=S(=O)(c1cc(Cl)cc(Cl)c1O)N1CC(c2nc3ccccc3s2)C1 [I-15]

IC50 [µM] | Compound
0.5 to 20 | O=C(O)c1c(-c2ccccc2)c2cc(Cl)ccc2n1S(=O)(=O)c1cc(Cl)cc(Cl)c1 [I-104]
0.5 to 20 | COC(=O)c1ccc2c(c1)cc(-c1ccccc1)n2S(=O)(=O)c1cc(Br)cc(Cl)c1O [I-53]
≥ 20 | COC(=O)c1c(-c2ccccc2)c2cc(Cl)ccc2n1S(=O)(=O)c1cc(Cl)cc(Cl)c1 [I-120]
0.5 to 20 | O=C(O)c1cc2c(cc1Cl)cc(-c1cncnc1)n2S(=O)(=O)c1cc(Br)cc(Cl)c1O [I-157]
0.5 to 20 | O=S(=O)(c1cc(Br)cc(Cl)c1O)n1c(Cc2ccccc2OC(F)(F)F)cc2cc(Cl)ccc21 [I-151]
0.5 to 20 | O=S(=O)(c1cc(Cl)cc(Cl)c1O)n1c(-c2cccc(OC(F)(F)F)c2)cc2cc(Cl)ccc21 [I-54]
0.5 to 20 | O=C(c1cc(Cl)c(O)c(S(=O)(=O)n2c(-c3ccccc3)cc3cc(Cl)ccc32)c1)N1CCC1 [I-52, azetidin-1-yl(3-chloro-5-((5-chloro-2-phenyl-1H-indol-1-yl)sulfonyl)-4-hydroxyphenyl)methanone]
0.5 to 20 | CN(C)C(=O)c1ccc(-c2cc3cc(Cl)ccc3n2S(=O)(=O)c2cc(Br)cc(Cl)c2O)cc1 [I-50, 4-(1-((5-bromo-3-chloro-2-hydroxyphenyl)sulfonyl)-5-chloro-1H-indol-2-yl)-N,N-dimethylbenzamide]
0.5 to 20 | O=S(=O)(c1cc(F)cc(F)c1O)n1c(-c2cccnn2)cc2cc(Cl)ccc21 [I-99]
0.5 to 20 | Cc1nccnc1-c1cc2cc(Cl)ccc2n1S(=O)(=O)c1cc(F)cc(F)c1O [I-135]
0.5 to 20 | O=S(=O)(c1cc(F)cc(F)c1O)n1c(-c2ccc[n+]([O-])c2)cc2cc(Cl)ccc21 [I-98]
0.5 to 20 | O=S(=O)(c1cccc(Cl)c1O)n1c(-c2cncnc2)cc2cc(Cl)ccc21 [I-94]
0.5 to 20 | O=S(=O)(c1cc(Br)cc(Cl)c1O)N1CCc2ccc(-c3ccccc3)cc21 [I-3, 4-bromo-2-chloro-6-((6-phenylindolin-1-yl)sulfonyl)phenol]
0.5 to 20 | O=S(=O)(c1cc(Cl)cc(Cl)c1O)N1CCCCC1c1ccccc1 (stereo not shown) [I-22]
0.5 to 20 | O=C(O)c1cccc(-c2cc3cc(Cl)ccc3n2S(=O)(=O)c2cc(Cl)cc(Cl)c2)c1 [I-84]
≥ 20 | Cn1cc(-c2cc3cc(C#N)ccc3n2S(=O)(=O)c2cc(F)cc(F)c2O)cn1 [I-118]
0.5 to 20 | Cc1c(-c2ccccc2)c2cc(Cl)ccc2n1S(=O)(=O)c1cc(Br)cc(Cl)c1O [I-46]
0.5 to 20 | CN(C)C(=O)c1cc2cc(Cl)ccc2n1S(=O)(=O)c1cc(Cl)cc(Cl)c1O [I-111]
0.5 to 20 | COc1ccc(Cn2cncc(-c3cc4cc(Cl)ccc4n3S(=O)(=O)c3cc(F)cc(F)c3O)c2=O)cc1 [I-136, 5-(5-chloro-1-((3,5-difluoro-2-hydroxyphenyl)sulfonyl)-1H-indol-2-yl)-3-(4-methoxybenzyl)pyrimidin-4(3H)-one]
0.5 to 20 | O=c1[nH]cncc1-c1cc2cc(Cl)ccc2n1S(=O)(=O)c1cc(F)cc(F)c1O [I-141, 5-(5-chloro-1-((3,5-difluoro-2-hydroxyphenyl)sulfonyl)-1H-indol-2-yl)pyrimidin-4(3H)-one]
0.5 to 20 | O=C(O)c1ccc(-c2cc3cc(Cl)ccc3n2S(=O)(=O)c2cc(Cl)cc(Cl)c2O)cc1 [I-59]
